Assay results reported in US11332716B2, “Methods and compositions for producing pancreatic beta cells” (The Regents of the University of California, priority 2015, dated 2022).

Legend:
ALK = ALK (Homo sapiens, UniProt Q9UM73); settings: at 1 nM; cited from earlier work
Axl [1] = biological target: T1, Axl (Homo sapiens, UniProt P30530); settings: at 1 nM; cited from earlier work
T1 sequence (P30530 26-894): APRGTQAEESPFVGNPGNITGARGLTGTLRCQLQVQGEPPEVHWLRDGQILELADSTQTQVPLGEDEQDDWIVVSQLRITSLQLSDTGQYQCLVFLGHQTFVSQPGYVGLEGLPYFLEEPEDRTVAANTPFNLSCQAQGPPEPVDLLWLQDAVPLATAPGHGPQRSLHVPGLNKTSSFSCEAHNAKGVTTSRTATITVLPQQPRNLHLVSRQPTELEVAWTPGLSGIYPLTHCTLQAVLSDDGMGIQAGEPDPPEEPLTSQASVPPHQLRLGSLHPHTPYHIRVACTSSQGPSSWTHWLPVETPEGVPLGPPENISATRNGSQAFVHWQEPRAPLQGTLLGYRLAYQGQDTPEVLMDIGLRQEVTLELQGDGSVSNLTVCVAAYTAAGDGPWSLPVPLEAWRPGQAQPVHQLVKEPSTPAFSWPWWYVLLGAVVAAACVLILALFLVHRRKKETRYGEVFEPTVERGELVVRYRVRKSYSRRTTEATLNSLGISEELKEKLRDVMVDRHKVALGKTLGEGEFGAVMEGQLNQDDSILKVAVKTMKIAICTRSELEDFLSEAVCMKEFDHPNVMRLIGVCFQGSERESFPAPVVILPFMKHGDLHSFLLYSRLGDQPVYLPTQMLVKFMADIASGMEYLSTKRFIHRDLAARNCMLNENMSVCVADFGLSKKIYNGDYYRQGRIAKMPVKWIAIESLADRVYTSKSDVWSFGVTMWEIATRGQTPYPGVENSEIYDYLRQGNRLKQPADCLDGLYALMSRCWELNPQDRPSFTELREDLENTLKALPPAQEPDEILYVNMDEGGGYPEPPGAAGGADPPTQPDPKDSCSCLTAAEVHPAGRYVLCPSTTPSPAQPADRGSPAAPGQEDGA

LTK = LTK (Homo sapiens, UniProt P29376); settings: at 1 nM; cited from earlier work
Flt3 = biological target: T2, Flt3 (Homo sapiens, UniProt P36888); settings: at 1 nM; cited from earlier work
T2 sequence (P36888 27-993): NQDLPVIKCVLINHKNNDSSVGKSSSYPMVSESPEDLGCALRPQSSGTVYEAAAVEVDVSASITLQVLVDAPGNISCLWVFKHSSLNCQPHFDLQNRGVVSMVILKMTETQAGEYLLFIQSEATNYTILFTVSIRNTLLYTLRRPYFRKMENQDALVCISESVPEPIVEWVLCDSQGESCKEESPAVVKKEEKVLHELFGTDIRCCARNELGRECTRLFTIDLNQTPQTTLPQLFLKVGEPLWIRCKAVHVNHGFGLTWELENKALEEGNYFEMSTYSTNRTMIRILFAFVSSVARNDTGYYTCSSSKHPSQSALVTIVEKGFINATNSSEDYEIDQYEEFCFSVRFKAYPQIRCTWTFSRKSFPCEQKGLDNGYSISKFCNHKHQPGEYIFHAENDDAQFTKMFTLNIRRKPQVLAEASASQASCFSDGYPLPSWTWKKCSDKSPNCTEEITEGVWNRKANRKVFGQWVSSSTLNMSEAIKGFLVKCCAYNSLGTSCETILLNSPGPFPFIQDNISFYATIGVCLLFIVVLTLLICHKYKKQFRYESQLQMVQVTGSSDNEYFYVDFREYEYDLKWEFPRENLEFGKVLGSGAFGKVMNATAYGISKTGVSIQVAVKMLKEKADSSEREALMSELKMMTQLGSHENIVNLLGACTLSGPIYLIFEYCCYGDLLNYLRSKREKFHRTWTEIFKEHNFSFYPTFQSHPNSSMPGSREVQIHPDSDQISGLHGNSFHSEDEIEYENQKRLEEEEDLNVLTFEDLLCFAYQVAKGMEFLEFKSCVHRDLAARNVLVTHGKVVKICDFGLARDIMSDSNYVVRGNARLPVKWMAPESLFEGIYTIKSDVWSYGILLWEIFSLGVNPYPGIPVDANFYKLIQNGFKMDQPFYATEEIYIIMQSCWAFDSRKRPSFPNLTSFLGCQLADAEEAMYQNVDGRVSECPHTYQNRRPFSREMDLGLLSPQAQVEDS

Axl [2] = biological target: T1, Axl; settings: 1 μM; cited from earlier work
[3] = tested on: Src-dependent cell proliferation; settings: cited from earlier work
γ-secretase = settings: read-out: IC50 for total β-amyloid; cited from earlier work
[4] = tested on: pancreatic endodermal progenitor cells (cPE cells); assay: Maturation of cPE cells into C-peptide positive cells, chemical screen; settings: added individually to basal pancreatic differentiation media
presenilase = settings: higher concentrations (20-400 μM); cited from earlier work
SAPK2/p38 = SAPK2/p38 (Homo sapiens, UniProt Q16539); settings: cited from earlier work
[5] = tested on: MKN45, U87MG, MDA-MB-231, COLO205, and A549 tumor cells; settings: 20 mg/kg-60 mg/kg; c-Met-driven or non-c-Met-driven xenografts; cited from earlier work

Chain of ALK (Q9UM73 19-1620, species assumed): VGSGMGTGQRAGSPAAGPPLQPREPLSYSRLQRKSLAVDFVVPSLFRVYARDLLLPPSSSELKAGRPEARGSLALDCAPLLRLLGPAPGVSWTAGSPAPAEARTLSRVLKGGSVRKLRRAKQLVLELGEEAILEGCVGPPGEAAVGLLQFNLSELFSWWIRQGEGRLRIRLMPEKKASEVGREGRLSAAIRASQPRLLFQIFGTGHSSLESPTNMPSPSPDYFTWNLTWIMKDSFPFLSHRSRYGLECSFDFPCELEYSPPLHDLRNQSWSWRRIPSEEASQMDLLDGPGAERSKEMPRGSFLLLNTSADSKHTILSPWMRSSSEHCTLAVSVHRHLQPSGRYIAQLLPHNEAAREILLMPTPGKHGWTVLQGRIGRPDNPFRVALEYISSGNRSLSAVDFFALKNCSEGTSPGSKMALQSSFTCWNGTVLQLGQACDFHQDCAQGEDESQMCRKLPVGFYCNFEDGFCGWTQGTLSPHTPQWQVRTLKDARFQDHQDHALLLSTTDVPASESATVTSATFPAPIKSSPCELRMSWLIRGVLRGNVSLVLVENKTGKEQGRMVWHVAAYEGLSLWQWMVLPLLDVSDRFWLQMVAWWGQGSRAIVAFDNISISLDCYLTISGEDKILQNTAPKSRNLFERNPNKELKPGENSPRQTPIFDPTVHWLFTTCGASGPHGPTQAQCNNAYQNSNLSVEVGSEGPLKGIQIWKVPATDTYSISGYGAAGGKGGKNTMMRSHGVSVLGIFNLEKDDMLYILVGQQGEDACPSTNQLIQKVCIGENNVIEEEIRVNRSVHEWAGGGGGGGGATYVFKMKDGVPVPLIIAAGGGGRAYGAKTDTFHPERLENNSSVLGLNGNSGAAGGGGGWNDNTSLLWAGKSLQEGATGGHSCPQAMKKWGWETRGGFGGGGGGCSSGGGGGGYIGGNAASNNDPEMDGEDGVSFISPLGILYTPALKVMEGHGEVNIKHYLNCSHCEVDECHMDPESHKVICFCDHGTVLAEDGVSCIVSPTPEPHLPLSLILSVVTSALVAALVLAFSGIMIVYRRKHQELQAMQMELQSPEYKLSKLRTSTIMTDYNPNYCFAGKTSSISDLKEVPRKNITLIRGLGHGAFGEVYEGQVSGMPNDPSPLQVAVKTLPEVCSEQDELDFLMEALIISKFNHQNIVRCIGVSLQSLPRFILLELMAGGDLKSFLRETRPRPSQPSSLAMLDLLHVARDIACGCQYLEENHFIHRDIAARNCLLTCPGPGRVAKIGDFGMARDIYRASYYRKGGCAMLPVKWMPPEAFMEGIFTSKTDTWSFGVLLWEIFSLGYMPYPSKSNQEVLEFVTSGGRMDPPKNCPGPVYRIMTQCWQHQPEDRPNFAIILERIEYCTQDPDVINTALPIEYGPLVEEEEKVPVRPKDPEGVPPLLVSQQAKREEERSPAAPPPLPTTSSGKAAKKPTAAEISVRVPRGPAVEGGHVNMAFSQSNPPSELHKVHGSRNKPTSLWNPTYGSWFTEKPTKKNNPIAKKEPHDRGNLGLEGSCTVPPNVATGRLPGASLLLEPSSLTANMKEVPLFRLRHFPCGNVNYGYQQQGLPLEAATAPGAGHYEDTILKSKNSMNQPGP
Chain of SAPK2/p38 (Q16539 whole entry): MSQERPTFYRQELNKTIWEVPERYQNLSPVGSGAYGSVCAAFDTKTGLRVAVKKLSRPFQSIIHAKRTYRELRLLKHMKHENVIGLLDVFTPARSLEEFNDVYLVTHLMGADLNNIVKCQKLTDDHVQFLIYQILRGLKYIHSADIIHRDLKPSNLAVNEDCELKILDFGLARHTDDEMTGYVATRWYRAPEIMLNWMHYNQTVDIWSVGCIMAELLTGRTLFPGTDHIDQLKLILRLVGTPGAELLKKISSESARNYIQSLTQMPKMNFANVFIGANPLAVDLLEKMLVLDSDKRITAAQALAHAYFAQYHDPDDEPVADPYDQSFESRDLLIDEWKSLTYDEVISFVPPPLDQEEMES
Chain of LTK (P29376 17-864, species assumed): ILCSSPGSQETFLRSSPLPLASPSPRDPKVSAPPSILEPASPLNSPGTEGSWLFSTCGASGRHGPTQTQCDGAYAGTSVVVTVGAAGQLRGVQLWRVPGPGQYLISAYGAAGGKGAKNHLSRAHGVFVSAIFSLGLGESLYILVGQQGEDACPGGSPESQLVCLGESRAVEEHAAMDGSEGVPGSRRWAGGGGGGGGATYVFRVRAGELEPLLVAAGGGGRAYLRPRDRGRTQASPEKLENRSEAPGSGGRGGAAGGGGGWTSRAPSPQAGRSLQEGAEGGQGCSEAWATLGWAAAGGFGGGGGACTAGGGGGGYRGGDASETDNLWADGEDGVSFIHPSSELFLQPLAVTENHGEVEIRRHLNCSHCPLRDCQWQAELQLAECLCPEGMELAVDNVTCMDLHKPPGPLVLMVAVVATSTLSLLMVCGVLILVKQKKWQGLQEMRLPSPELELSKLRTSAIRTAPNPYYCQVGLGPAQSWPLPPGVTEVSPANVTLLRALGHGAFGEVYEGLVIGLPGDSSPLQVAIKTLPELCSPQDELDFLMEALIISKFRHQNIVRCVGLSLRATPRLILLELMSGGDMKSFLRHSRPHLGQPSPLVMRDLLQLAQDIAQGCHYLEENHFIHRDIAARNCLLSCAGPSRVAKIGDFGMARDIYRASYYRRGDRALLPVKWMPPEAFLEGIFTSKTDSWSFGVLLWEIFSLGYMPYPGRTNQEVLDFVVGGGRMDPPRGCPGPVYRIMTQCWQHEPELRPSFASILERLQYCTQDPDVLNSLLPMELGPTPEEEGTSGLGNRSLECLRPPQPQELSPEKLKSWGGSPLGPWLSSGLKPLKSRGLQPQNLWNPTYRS

## CCc1nc(C(N)=O)c(Nc2ccc(N3CCC(N4CCN(C)CC4)CC3)c(OC)c2)nc1NC1CCOCC1 [ASP2215]
ALK
  inhibition of ALK: over 50%
Axl [1]
  inhibition of AXL: over 50%
LTK
  inhibition of LTK: over 50%
Flt3
  inhibition of FLT3: over 50%

## S=C(NCc1ccc2c(c1)OCO2)N1CCN(c2ncnc3c2oc2ccccc23)CC1 [Amuvatinib]
Axl [2]
  tyrosine phosphorylation of AXL: inhibits tyrosine phosphorylation of AXL

## COc1cc(Nc2c(C#N)cnc3cc(OCCCN4CCN(C)CC4)c(OC)cc23)c(Cl)cc1Cl [Bosutinib]
[3]
  IC50: 100 nM

## C[C@H](NC(=O)Cc1cc(F)cc(F)c1)C(=O)N[C@H]1N=C(c2ccccc2)c2ccccc2N(C)C1=O [Compound E]
γ-secretase
  IC50: 0.3 nM
[4]
  percentage of C-peptide positive cells, individual supplementation: effective in increasing
presenilase
  effect on presenilase activity: only weakly affects

## NC(=O)c1ccc(-c2nc(-c3ccc4c(c3)OCCO4)c(-c3ccccn3)[nH]2)cc1 [D 4476, 4-[4-(2,3-Dihydro-1,4-benzodioxin-6-yl)-5-(2-pyridinyl)-IH-imidazol-2-yl]benzamide]
SAPK2/p38
  selectivity over SAPK2/p38: greater than 20 fold

## Cn1cnc(-c2cc3nccc(Oc4ccc(NC(=S)NC(=O)Cc5ccccc5)cc4F)c3s2)c1 [MGCD-265]
[5]
  tumor growth and c-Met signaling: inhibits tumor growth and c-Met signaling
